# Measurements taken from patent publication US5712251A, “Treatment method” (Roussel Uclaf, priority 1979, dated 1998).
# Key:
# [1] = tested on: ovarian steroidogenosis; assay: Inhibitory activity on ovarian steroidogenesis in women (Example 3); format: in vivo
# Experimental: The study was conducted for 6 consecutive cycles consisting of 2 pretreatment cycles, 2 treatment cycles and 2 post-treatment cycles. […] Daily blood samples were taken between 4 and 6 P.M. to measure seric levels of LH, FSH, progesterone and estradiol which were determined by radioimmuno-logic tests with double antibodies. The antibodies to measure LH and FSH were furnished by the National Pituitary Agency of N.I.H. of Bethesda, Md.
# Estradiol and progesterone were measured with highly specific antibodies developed against 7-(O-carboxymethyl)-oxime of estradiol and 12-(O-carboxymethyl)-oxime of progesterone, respectively [3H] 17β-estradiol and ^125 I-progesterone-12-[O-carboxymethyl)-oxime]used as tracers. The serum was extracted with benzene and the steroids were separated with a LH-20 column before the determination. The radioimmunological results were exploited by the program derived from model II of Rodbard and Lewald as in Example 1 and the statistical significance was measured by the multiple level test of Ducan-Kramer of Example 1. The results are shown in the graphs of sheets 3 to 5 of the Figures.
# [2] = tested on: prostate and seminal vesicules; assay: Peptide in association with an antiandrogen: weight of prostate and seminal vesicles of rats (Example 4); format: in vivo, rats of the Sprague-Dawley strain; conditions: 100 or 500 μg peptide s.c. daily plus 5 mg product A twice daily, 14 days
# Experimental: The effect of the administration of D Ser (Tbu)^6 of Gly^10 LH-RH ethylamide in association with an antiandrogen was determined on groups of 9 normal rats of the Sprague-Dawley strain weighing about 250 g. The rats received for 14 days a subcutaneous administration at 9 A.M. of D Ser (Tbu)^6 of Gly^10 LH-RH ethylamide at a dose of 20, 100 or 500 μg in physiological serum and at 9 A.M. and 4 P.M. doses of 1 or 5 mg of 5,5-dimethyl-3-[4-nitro-3-trifluoromethyl-phenyl]-2,4-imidazolidinedione (product A) in solution in sesame oil containing 5% of benzyl alcohol. One group of rats received only physiological serum and one group received only product A.
# The animals were killed 24 hours after the last injection and the weight of the prostate and seminal vesicules of the rats were determined.
# [3] = tested on: testicular steroidogensis; assay: Inhibitory activity against testicular steroidogenesis in men in good health, single intranasal dose (Example 1); format: in vivo; conditions: for level of testosterone/steroids on the fourth day after administration: single intranasal dose of 500 μg, fourth day (until 6th day)
# Experimental: The inhibitory activity of D Ser (Tbu)^6 or Gly^10 LH-RH ethylamide (described in German application Ser. No. 2,438,350) against testicular steroidogensis in men in good health was determined on men in good health aged 30 to 40 years. The said product was administered intranasally at a dose of 500 μg in a few drops of distilled water at 8 A.M. on the third day of the test. For 2 days prior to the treatment and for 6 days after the treatment, samples of blood were taken daily at 8 A.M., 3 P.M. and 10 P.M. On the day of administration of the LH-RH agonist, blood samples were taken at 11 A.M. and 6 P.M.
# The seric concentrations of LH and FSH were measured by radioimmuno-logic dosages with double antibodies and the antibodies for measuring LH and FSH were furnished by the National Pituitary Agency of N.I.H. in Bethesda, Md. The seric concentrations of steroids was measured by radioimmuno-logic dosages in which one ml of serum was extracted with ether and the steroids were separated on a LH-20 column before measuring with radioimmuno-logic dosages. The radioimmuno-logic dosage results were determined by a program derived from model II of Rodbard et al [Second Karolinska Symposium on Research Methods in Reproductive Endocrinology, Diezfalusky Editer, Copenhague (1970), p. 79-103]. The statistical significance was determined by the "multiple level test" of Duncan-Kramer [Kramer, Biometrics, Vol 12 (1956), p. 307]. The results are shown in the graphs on sheet 1 of the Figures filed herewith.
# [4] = 3rd day following peptide administration, intranasal 500 μg
compound,measurement,setting,value
CCNC(=O)[C@@H]1CCCN1C(=O)[C@H](CCCNC(=N)N)NC(=O)[C@H](CC(C)C)NC(=O)[C@@H](COC(C)(C)C)NC(=O)[C@H](Cc1ccc(O)cc1)NC(=O)[C@H](CO)NC(=O)[C@H](Cc1c[nH]c2ccccc12)NC(=O)[C@H](Cc1c[nH]cn1)NC(=O)[C@@H]1CCC(=O)N1 [D Ser (Tbu)^6 of Gly^10 LH-RH ethylamide],"progesterone level in cycles of post-treatment, pretreatment cycles as base of 100%","[1]; 12 cycles, 6 women",99%
same,"progesterone level in cycles of treatment, pretreatment cycles as base of 100%","[1]; 12 cycles, 6 women",46%
same,level of progesterone reduced as compared to the controls,[1]; review of 12 cycles (sheet 5),46%
same,level of seric progesterone in the 2 cycles of post-treatment,[1]; sheet 4,return to normal
same,"reduction of seric level of progesterone as compared to controls, first treatment cycle","[1]; typical subject (sheet 3), 500 μg intranasal at 8 A.M. and 5 P.M. on one day between 4th and 9th day after LH peak",13%
same,"reduction of seric level of progesterone as compared to controls, second treatment cycle","[1]; typical subject (sheet 3), same regimen",34%
same,weight of the prostate,[2],"Similar, but a little less marked"
same,weight of the seminal vesicules,[2],approached the weight of the seminal vesicules of castrated rats
same,concentration of 17-OH-progesterone relative to initial control values,[3]; [4],40%
same,concentration of testosterone relative to initial control values,[3]; [4],50%
same,FSH plasmatic level,"[3]; intranasal 500 μg, men",increase
same,LH plasmatic level,"[3]; intranasal 500 μg, men",increase
same,level of testosterone/steroids on the fourth day after administration,[3]; listed as D Ser (Tbu)^6 or Gly^10 LH-RH ethylamide,returned to normal
same,level of testosterone/steroids on the fourth day after administration,[3]; listed as peptide,return to normal levels
